# Measured values: US20160367505A1, “PROTOTYPICAL ANALGESIC PROFILE OF N-STEARYL DOPAMINE (NS-DA)” (priority 2015, published 2016)
# What was measured:
# [1] = test system: brain dopamine turnover; details: mice and rats; studies of the early ninety's; cited from earlier work
# [2] = test system: locomotion; details: mice and rats; studies of the early ninety's; cited from earlier work
# [3] = test system: Paclitaxel induced pain sensitization in the formalin test of pain; assay: Paclitaxel induced neuropathic sensitization (PINS) in the formalin test of pain; type: in vivo, mice; details: for PINS diminished: per os in Tween-80 (5%) suspension, vs Tween-80 (5%) controls
# Excerpt: NS-DA was synthesized and studied pharmacologically in the early ninety's.
SMILES,effect on brain dopamine turnover [1],effect on locomotion [2],"analgesic effect (decrease) ([3]; 0-5 mn acute pain phase, females)","analgesic effect ([3]; 0-5 mn acute pain phase, male mice)","suppression of PINS ([3]; 40 mg/kg ip in Cremophor.EL, 35-40 mn central sensitization phase, 1 hour after administration, vs Cremophor.EL control)","analgesic effect (decrease) ([3]; 35-40 mn sensitization phase, males and females)","analgesic effect (decrease) ([3]; 55-60 mn sensitization phase, female mice)","analgesic effect (decrease) ([3]; 55-60 mn sensitization phase, males)","effect on PINS ([3]; NS-DA 10 mg/kg ip alone, 35-40 mn central sensitization phase)","analgesic activity against PINS ([3]; formalin test, mice, general statement)",PINS diminished ([3]; 1 hour after administration),PINS diminished ([3]; 2 hours after administration),PINS diminished ([3]; 4 hours after administration),"decrease of PINS ([3]; morphine 3 mg/kg sc alone, 35-40 mn central sensitization phase)"
CCCCCCCCCCCCCCCCCC(=O)NCCc1ccc(O)c(O)c1 [NS-DA],decrease of the brain dopamine turnover,hypomotility,65%,not significant,94.8%,about 95%,95%,58%,inactive,high analgesic activity,39%,62%,76%,–
"CN1CC[C@]23c4c5ccc(O)c4O[C@H]2[C@@H](O)C=C[C@H]3[C@H]1C5 [morphine, reference compound]",–,–,–,–,–,–,–,–,–,–,–,–,–,37%
